BindingDB's records for doi:10.1016/j.bmcl.2023.129387 (The University of Queensland, 2023)

Biological target: Metallo-beta-lactamase type 2 (Klebsiella pneumoniae, UniProt C7C422)
Test: Competitive inhibition of NDM-1 (unknown origin) using penicillin G as substrate by Michaelis-Menten equation based kinetic analysis

Metallo-beta-lactamase type 2, sequence (C7C422 whole entry): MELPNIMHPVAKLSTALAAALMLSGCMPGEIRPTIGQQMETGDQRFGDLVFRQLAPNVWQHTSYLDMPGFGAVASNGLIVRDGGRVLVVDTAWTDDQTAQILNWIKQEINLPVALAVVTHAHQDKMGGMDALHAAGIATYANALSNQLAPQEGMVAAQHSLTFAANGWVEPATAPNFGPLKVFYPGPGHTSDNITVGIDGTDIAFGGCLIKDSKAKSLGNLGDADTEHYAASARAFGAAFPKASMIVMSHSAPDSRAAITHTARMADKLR

Ki [µM]	Structure (SMILES)
34	COC(=O)c1ccc(/C=N/c2c(C#N)c(-c3ccccc3)c(-c3ccccc3)n2Cc2ccccc2)cc1
9	N#Cc1c(-c2ccccc2)c(-c2ccccc2)n(Cc2ccccc2)c1NC(=O)c1ccccc1
1.3	N#Cc1c(-c2ccccc2)c(-c2ccccc2)n(Cc2ccccc2)c1/N=C/c1ccc(O)cc1
3.2	N#Cc1c(-c2ccccc2)c(-c2ccccc2)n(Cc2ccccc2)c1/N=C/c1ccccc1
1.7	N#Cc1c(-c2ccccc2)c(-c2ccccc2)n(Cc2ccccc2)c1/N=C/c1cccs1
